Key:
[1] = system: rat leg ischemia (arteriosclerosis obliterans (ASO)) model; test: Angiogenesis test using rat leg ischemia (ASO) model, Example 4; format: in vivo
Protocol: Leg ischemia model was prepared by ligating rat left femoral artery. Blood flow in hind legs was measured by using Laser Doppler Imager (Moor Instruments) 2 weeks after the preparation, and the animals were divided into 6 groups (n=5) in such a manner that the average value of blood flow became almost uniform.
Starting on the next day of the grouping, 0.1 ml/site, 2 sites, of the agent to be tested was administered by intramuscular injection into the left femoral adductor, for once a week, 4 times in total as a solution to be tested. One week after completion of the final administration, blood flows of hind legs were measured by using Laser Doppler Imager (Moor Instruments), and blood flows of the treated leg (left leg) and untreated leg (right leg) were compared and examined.
In this connection, construction of the solution to be tested is as follows. Solvent (control) group: 0.2 w/v % Tween 80 solution (0.2 ml).
• The polylactic acid-glycolic acid copolymer used in Preparation Example 2 was suspended in 0.2 w/v % Tween 80 solution (0.2 ml). In this connection, amount of the polylactic acid-glycolic acid copolymer is identical to the amount contained in the Compound 1 MS (1 mg). Compound 1 (1 mg) Group: • Compound 1 (1 mg) was suspended in 0.2 w/v % Tween 80 solution (0.2 ml). […]

[2] = system: normal human umbilical cord vein vascular endothelial cells and normal human skin fibroblasts; test: Measurement of angiogenesis acceleration action (in vitro), hollow organ formation, Example 1; format: cell-based
Protocol: An angiogenesis kit (manufactured by Kurabo; constituted from normal human umbilical cord vein vascular endothelial cells and normal human skin fibroblasts) was cultured for 3 hours, and then the culture medium (the medium for angiogenesis use attached to the angiogenesis kit was used as the culture medium and cultured at 37° C. under a moist environment of 5% carbon dioxide-95% air, and a carbon dioxide incubator BNA-121D was used as the incubator) was changed and an agent to be tested was added to each well (0.5 ml/well). The medium exchange was carried out also on the 3rd, 6th and 8th days after commencement of the culturing and the fresh agent to be tested was added. The kind and concentration of the agent to be tested were untreated, solvent (DMSO) 0.1%, Compound 1 10^−9, 10^−8 and 10^−7 mol/l, VEGF-A 0.1, 1 and 10 ng/ml and HGF 0.1, 1 and 10 ng/ml, and the culturing was carried out by using 3 wells for each concentration. Fixation was carried out 10 days after the commencement of culturing, and staining of hollow organ with anti-CD31 antibody was carried out by using a hollow organ staining kit (manufactured by Kurabo). As the evaluation, Chalkley Grid (a grid lens, manufactured by Kurabo) was mounted on the eyepiece of a microscope, and the hollow organ formation was evaluated by counting intersections of the randomly arrange points of Chalkley Grid with the formed hollow organ (by referring to the evaluation method of J. Pathol., 177, 275-283 (1995)). The counting was carried out at 12 positions per well, and the total was calculated.
As the agent to be tested, Compound 1 ((E)-[5-[2-[1-phenyl-1-(3-pyridyl)methylideneaminoxy]ethyl]-7,8-dihydronaphthalen-1-yloxy]acetic acid) was dissolved in dimethyl sulfoxide (DMSO) to prepare 10^−4, 10^−5 and 10^−6 mol/l solutions which were then used by diluting 1/1000 time with the culture medium.
As the VEGF-A (vascular endothelial growth factor-A), the 2 μg/ml solution of VEGF contained in the angiogenesis control reagent kit of Kurabo was diluted with the culture medium and used. […]

HGF = test: Endogenous repair factor protein producing action (in vitro), HGF by ELISA, Example 2; format: cell-based, human; conditions: 10^-7 mol/l
Protocol: An angiogenesis kit (manufactured by Kurabo; constituted from normal human umbilical cord vein vascular endothelial cells and normal human skin fibroblasts) was cultured for 3 hours, and then the culture medium (the medium for angiogenesis use attached to the angiogenesis kit was used as the culture medium and cultured at 37° C. under a moist environment of 5% carbon dioxide-95% air, and a carbon dioxide incubator BNA-121D was used as the incubator) was changed and an agent to be tested was added to each well (0.5 ml/well). The agent to be tested were solvent (DMSO) 0.1% and Compound 1 10^−7 mol/l, and the culturing was carried out by using 3 wells for each. Culture supernatants were collected before commencement of the culturing and 1, 2, 6, 24, 48 and 72 hours after the commencement. HGF and VEGF protein concentrations in the culture supernatants were measured by using an ELISA kit (R % D system-Funakoshi).
As the agent to be tested, Compound 1 ((E)-[5-[2-[1-phenyl-1-(3-pyridyl)methylideneaminoxy]ethyl]-7,8-dihydronaphthalen-1-yloxy]acetic acid) was dissolved in dimethyl sulfoxide (DMSO) to prepare 10^−4 mol/l solution which was then used by diluting 1/1000 time with the culture medium.
Results of the solvent control wells were compared with those of the wells treated with the agent to be tested by Dunnett's test (two-sided test). The significance level was set to 5%. […]

Structure (SMILES): O=C(O)COc1cccc2c1CCC=C2CCO/N=C(\c1ccccc1)c1cccnc1 [Compound 1, (E)-[5-[2-[1-phenyl-1-(3-pyridyl)methylideneaminoxy]ethyl]-7,8-dihydronaphthalen-1-yloxy]acetic acid]
- Treated leg/untreated leg blood flow ratio ([1]; 1 mg as Compound 1, i.m. left femoral adductor once a week x4, 1 week after final administration): 76.2 ± 2.8 %
- blood flow improving effect, in words ([1]; 1 mg, i.m. once a week x4, vs Control / polymer group): significant recovery of blood flow against Control
- hollow organ formation (Chalkley Grid count), in words ([2]; 10^-8 and 10^-7 mol/l, 10 days of culturing, vs untreated wells, Dunnett's test, FIG. 1): accelerated hollow organ formation statistically significantly
- angiogenesis accelerating effect, strength compared with positive control agents ([2]; co-culture system of human vascular endothelial cells and human fibroblasts): strength equivalent to the positive control agents VEGF-A and HGF
- production of HGF protein, in words (HGF; 72 hours of culturing, vs solvent control): accelerated production of HGF protein and VEGF protein statistically significantly
- HGF protein concentration in culture supernatant (HGF; after 72 hours of culturing, average of 3 wells ± SD): 518 ± 15 pg/mL
